Counter-ions that a name gives are not always drawn.
Assays:
[1] = tested on: IL-6; experiment: IL-6 expression in LPS stimulated PBMCs (Meso Scale); type: cell-based, human; settings: Homo sapiens, PBMC, LPS-stimulated PBMCs; for inhibition at 5 µM: compound concentration 5 μM; for inhibition at 10 µM: compound concentration 10 μM
Protocol: FIGS. 6 and 9B are graphs showing IL-6 expression in LPS stimulated peripheral blood mononuclear cells (PBMCs). PBMCs were plated in 96-well plates and pretreated with compound (Compound 1-9 individually) for 1 h, and then induced with 100 ng/mL LPS for 18-24 h. Cytokines were measured according to MesoScale protocol. Negative control wells were treated with DMSO. Compound activity was measured as a percentage of LPS-induced activity. “Rev” is lenalidomide.
(§1) Frozen primary blood mononuclear cells (PBMCs) and frozen CD14+ mobilized peripheral blood monocytes were purchased from AllCells. Cells were quick thawed, and washed 1-time with RPMI-1640/10% FBS/1% Penicillin/1% Streptomycin and plated in 96-well plates at 200,000 cells per well. Cells were pretreated with DMSO only, Compound 5013 (lenolidamide) or the indicated compound for 1 h and then induced with 100 ng/mL lipopolysaccharide (LPS) for 18-24 h. The supernatant was analyzed for IL-1 beta, IL-6, and TNF-α using Meso Scale assay according to manufacturer's protocol. The negative control wells were treated with DMSO.
(§2) PBMCs: AllCells PB003F, Normal Peripheral Blood MNC.
(§3) Media: RPMI 1640/10% FBS/1% Pen-Strep.

[2] = tested on: Molm-13 cells; experiment: Molm-13 cell viability (CellTiter-Glo); type: cell-based; settings: Homo sapiens, MOLM-13; compound concentration 10 μM; read-out: % Inhibition (MOLM-13 Cell Viability)
Protocol: FIG. 10A is a graph showing antiproliferative activity in H1048 (SCLC) cells. FIG. 10B is a graph showing antiproliferative activity in Molm-13 (AML) cells. In FIGS. 10A and 10B, the cells were incubated for 72 hrs with Compound 9 at the indicated concentrations or DMSO. Compound activity was measured based on the signal from remaining viable cells.
Molm-13 cells were cultivated in RPMI-1640 (10% FBS/1% pen-strep) and were plated in white walled 96-well plates at 20,000 cells/well. H1048 cells were cultured in DMEM:F12 media supplemented with 5% fetal bovine serum, insulin, transferrin, sodium selenite, hydrocortisone, β-estradiol, penicillin and streptomycin, and were plated in white walled 96-well plates at 20,000 cells/well. MDA-MB-231 cells were cultured in DMEM media supplemented with 10% fetal bovine serum, penicillin and streptomycin, and were plated in white walled 96-well plates at 10,000 cells/well. Cells were treated with compound or DMSO (0.1%, control) and the cultures were incubated for 3 days at 37° C. and 5% CO2. Following the incubation period, 100 μL of CellTiterGlow (CTG) reagent (CellTiter-Glo® Luminescent Cell Viability Assay, Promega (Madison, Wis.)) was added to each well. Following a 10 min incubation with shaking, luminescence was measured using a Victor Wallac Luminometer.

[3] = tested on: TNF-α; experiment: TNF-α expression in LPS stimulated PBMCs (Meso Scale); type: cell-based, human; settings: Homo sapiens, PBMC; for inhibition at 5 µM: compound concentration 5 μM; for inhibition at 10 µM: compound concentration 10 μM
Protocol: FIGS. 7 and 9C are graphs showing TNF-a expression in LPS stimulated peripheral blood mononuclear cells (PBMCs). PBMCs were plated in 96-well plates and pretreated with compound (Compound 1-9 individually) for 1 h, and then induced with 100 ng/mL LPS for 18-24 h. Cytokines in the media were measured according to MesoScale protocol. The negative control wells were treated with DMSO. Compound activity is measured as a percentage of LPS-induced activity. “Rev” is lenalidomide.
as §1, §2, §3

[4] = tested on: IL-2; experiment: anti-CD3-induced IL-2 secretion in PBMCs; type: cell-based; settings: Homo sapiens, PBMC, anti-CD3 stimulated PBMCs, 24 h, DMSO = 1.0, read-out: Fold Change IL-2; for fold induction at 5 µM: compound concentration 5 μM; for fold induction at 10 µM: compound concentration 10 μM
Protocol: FIGS. 4 and 9D are graphs showing anti-CD3-induced IL-2 secretion in PBMCs. 1 ug/mL anti-CD3 (OKT-3) antibody in PBS were coated onto 96-well plates overnight at 4° C. Approximately 550,000 PBMCs were added to each well, followed by addition of DMSO only, Compound 1-8 at 10 μM (FIG. 4) or Compound 9 at 0.1 μM or 1 μM (FIG. 9D), or 10 μM lenalidomide (rev). Induction was measured after 24 h as fold difference from the DMSO stimulated control.
For the IL-2 analysis, 96 well plates were precoated with 1 ug/mL anti-human CD3 antibody (OKT3, eBioscience Inc.). After washing with PBS, compounds were added to the wells (50 μL/well) followed by PBMCs diluted at 3-4 million cells/mL (150 μL/well). Plates were incubated for 24 h and the supernatants collected for Mesoscale IL-2 analysis.
Compound activity was measured as fold difference from the DMSO control. IL-1-beta activity is shown in FIG. 1; IL-6 activity is shown in FIG. 2; TNF-α activity is shown in FIG. 3; and IL-2 activity is shown in FIG. 4.

[5] = tested on: IL-1β; experiment: IL-1β expression in LPS stimulated PBMCs (Meso Scale); type: cell-based, human; settings: Homo sapiens, PBMC; for inhibition at 5 µM: compound concentration 5 μM; for inhibition at 10 µM: compound concentration 10 μM
Protocol: FIGS. 5 and 9A are graphs showing IL-1-beta expression in LPS stimulated peripheral blood mononuclear cells (PBMCs), PBMCs were plated in 96-well plates and pretreated with compound (Compound 1-9 individually) for 1 h, and then induced with 100 ng/mL LPS for 18-24 h. Cytokines in the media were measured according to MesoScale protocol. Negative control wells were treated with DMSO. Compound activity is measured as a percentage of LPS-induced activity. “Rev” is lenalidomide.
as §1, §2, §3

Row | SMILES | inhibition at 5 µM [1] | cytotoxicity at 10 µM [2] | inhibition at 5 µM [3] | fold induction at 5 µM [4] | inhibition at 5 µM [5] | inhibition at 10 µM [1] | inhibition at 10 µM [3] | fold induction at 10 µM [4] | inhibition at 10 µM [5]
1 | O=C1CCC[C@H](N2Cc3ccsc3C2=O)C(=O)N1 [Compound 1, (S)-3-(6-oxo-4,6-dihydro-5H-thieno[2,3-c]pyrrol-5-yl)azepane-2,7-dione] | 0% | 6% | 22% | 0.8 | 25% | – | – | – | –
2 | O=C1CCC[C@H](N2Cc3sccc3C2=O)C(=O)N1 [Compound 2, (S)-3-(4-oxo-4,6-dihydro-5H-thieno[2,3-c]pyrrol-5-yl)azepane-2,7-dione] | 31% | 32% | 65% | 1.9 | 88% | – | – | – | –
3 | O=C1CCC[C@H](N2C(=O)c3ccsc3C2=O)C(=O)N1 [Compound 3, (S)-5-(2,7-dioxoazepan-3-yl)-4H-thieno[2,3-c]pyrrole-4,6(5H)-dione] | – | 0% | – | – | – | 0% | 0% | 0.9 | 0%
4 | O=C1NCCCC[C@@H]1N1Cc2sccc2C1=O [Compound 4, (S)-5-(2-oxoazepan-3-yl)-5,6-dihydro-4H-thieno[2,3-c]pyrrol-4-one] | – | 0% | – | – | – | 0% | 0% | 0.7 | 0%
5 | O=C1CCC[C@@H](N2Cc3sccc3C2=O)C(=O)N1 [Compound 5, (R)-3-(4-oxo-4,6-dihydro-5H-thieno[2,3-c]pyrrol-5-yl)azepane-2,7-dione] | – | 24% | – | – | – | 1% | 0% | 1.4 | 0%
6 | O=C1C[C@H](N2Cc3sccc3C2=O)C(=O)N1 [Compound 6, (S)-3-(4-oxo-4,6-dihydro-5H-thieno[2,3-c]pyrrol-5-yl)pyrrolidine-2,5-dione] | – | 0% | – | – | – | 8% | 16% | 1 | 14%
7 | O=C1CCC[C@H](N2Cc3cscc3C2=O)C(=O)N1 [Compound 7, (S)-3-(4-oxo-4H-thieno[3,4-c]pyrrol-5(6H)-yl)azepane-2,7-dione] | – | 24% | – | – | – | 47% | 41% | 1.7 | 60%
8 | Cc1scc2c1CN([C@H]1CCCC(=O)NC1=O)C2=O [Compound 8, (S)-3-(1-methyl-4-oxo-4H-thieno[3,4-c]pyrrol-5(6H)-yl)azepane-2,7-dione] | – | 42% | – | – | – | 71% | 71% | 1 | 80%
9 | O=C1CCC[C@H](N2Cc3c(csc3C3CCCC3)C2=O)C(=O)N1 [Compound 10, (S)-3-(1-Cyclopentyl-4-oxo-4H-thieno[3,4-c]pyrrol-5(6H)-yl)azepane-2,7-dione] | – | 18% | – | – | – | 13% | 37% | 0.6 | 21%
10 | Cc1cc2c(s1)CN([C@H]1CCCC(=O)NC1=O)C2=O [Compound 11, (S)-3-(2-Methyl-4-oxo-4,6-dihydro-5H-thieno[2,3-c]pyrrol-5-yl)azepane-2,7-dione] | – | 18% | – | – | – | 26% | 46% | 2.6 | 65%
11 | CC(C)c1scc2c1CN([C@H]1CCCC(=O)NC1=O)C2=O [Compound 12, (S)-3-(1-Isopropyl-4-oxo-4H-thieno[3,4-c]pyrrol-5(6H)-yl)azepane-2,7-dione] | – | 31% | – | – | – | 0% | 56% | 0.8 | 52%
12 | O=C1CCC[C@H](N2Cc3c(csc3Br)C2=O)C(=O)N1 [Compound 13, (S)-3-(1-Bromo-4-oxo-4H-thieno[3,4-c]pyrrol-5(6H)-yl)azepane-2,7-dione] | – | 0% | – | – | – | 66% | 84% | 1.2 | 90%
13 | O=C1CCC[C@H](N2Cc3sc(Br)cc3C2=O)C(=O)N1 [Compound 14, (S)-3-(2-Bromo-4-oxo-4,6-dihydro-5H-thieno[2,3-c]pyrrol-5-yl)azepane-2,7-dione] | – | 0% | – | – | – | 65% | 85% | 1.5 | 88%
14 | O=C1CCC[C@H](N2C(=O)c3csc([N+](=O)[O-])c3C2=O)C(=O)N1 [Compound 15, (S)-5-(2,7-Dioxoazepan-3-yl)-1-nitro-4H-thieno[3,4-c]pyrrole-4,6(5H)-dione] | – | 19% | – | – | – | 56% | 55% | 0.7 | 67%
15 | Nc1scc2c1C(=O)N([C@H]1CCCC(=O)NC1=O)C2=O [Compound 16, (S)-1-Amino-5-(2,7-dioxoazepan-3-yl)-4H-thieno[3,4-c]pyrrole-4,6(5H)-dione] | – | 23% | – | – | – | 51% | 78% | 2.2 | 80%
16 | N#Cc1scc2c1CN([C@H]1CCCC(=O)NC1=O)C2=O [Compound 17, (S)-5-(2,7-Dioxoazepan-3-yl)-4-oxo-5,6-dihydro-4H-thieno[3,4-c]pyrrole-1-carbonitrile] | – | 21% | – | – | – | 14% | 26% | 1 | 4%
17 | NCc1scc2c1CN([C@H]1CCCC(=O)NC1=O)C2=O [Compound 18, (S)-3-(1-(Aminomethyl)-4-oxo-4H-thieno[3,4-c]pyrrol-5(6H)-yl)azepane-2,7-dione 2,2,2-trifluoroacetic Acid Salt] | – | 3% | – | – | – | 32% | 48% | 0.9 | 36%
18 | O=C1CCC[C@H](N2Cc3c(csc3C(F)F)C2=O)C(=O)N1 [Compound 19, (S)-3-(1-(Difluoromethyl)-4-oxo-4H-thieno[3,4-c]pyrrol-5(6H)-yl)azepane-2,7-dione] | – | 29% | – | – | – | 78% | 59% | 4 | 79%

— patent US10040804B2, “Compounds targeting proteins, compositions, methods, and uses thereof” (BioTheryX, Inc., priority 2016, dated 2018)
